Measurements reported in US8946230B2, “Aryl- and heteroaryl- nitrogen-heterocyclic compounds as PDE10 inhibitors” (Amgen Inc., priority 2010, dated 2015).
Where two headings read alike, the source gives them in different places.

Molecular target: T1, PDE10 (UniProt Q8CA95)
T1 sequence (Q8CA95 1-790): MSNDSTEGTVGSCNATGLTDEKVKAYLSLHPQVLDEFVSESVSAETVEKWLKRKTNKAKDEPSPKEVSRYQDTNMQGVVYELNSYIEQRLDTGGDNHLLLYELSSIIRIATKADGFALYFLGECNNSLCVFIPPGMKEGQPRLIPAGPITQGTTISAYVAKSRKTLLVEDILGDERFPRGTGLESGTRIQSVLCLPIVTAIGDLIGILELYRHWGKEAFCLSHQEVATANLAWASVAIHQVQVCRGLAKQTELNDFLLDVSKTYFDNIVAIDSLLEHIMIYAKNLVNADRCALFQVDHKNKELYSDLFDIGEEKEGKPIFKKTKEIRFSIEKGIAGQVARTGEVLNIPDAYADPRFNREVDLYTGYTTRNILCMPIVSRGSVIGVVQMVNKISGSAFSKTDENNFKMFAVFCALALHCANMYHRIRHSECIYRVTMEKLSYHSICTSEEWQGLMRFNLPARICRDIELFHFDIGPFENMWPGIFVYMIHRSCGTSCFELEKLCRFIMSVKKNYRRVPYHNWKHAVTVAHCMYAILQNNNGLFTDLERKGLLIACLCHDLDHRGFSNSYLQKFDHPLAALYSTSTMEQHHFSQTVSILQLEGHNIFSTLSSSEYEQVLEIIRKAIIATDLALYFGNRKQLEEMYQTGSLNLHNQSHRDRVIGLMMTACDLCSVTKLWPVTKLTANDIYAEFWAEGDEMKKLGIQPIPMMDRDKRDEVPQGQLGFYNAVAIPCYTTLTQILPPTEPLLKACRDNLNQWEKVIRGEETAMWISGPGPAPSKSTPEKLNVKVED
Assay: PDE10 enzyme inhibition, IMAP TR-FRET assay (Example A: MPDE10A7 Enzyme Activity and Inhibition)
Format: biochemical
Procedure: MPDE10A7 Enzyme Activity and Inhibition Enzyme Activity. An IMAP TR-FRET assay was used to analyze the enzyme activity (Molecular Devices Corp., Sunnyvale Calif.). 5 μL of serial diluted PDE10A (BPS Bioscience, San Diego, Calif.) or tissue homogenate was incubated with equal volumes of diluted fluorescein labeled cAMP or cGMP for 60 min in 384-well polystyrene assay plates (Corning, Corning, N.Y.) at room temperature. After incubation, the reaction was stopped by adding 60 μL of diluted binding reagents and was incubated for 3 hours to overnight at room temperature. The plates were read on an Envision (Perkin Elmer, Waltham, Mass.) for time resolved fluorescence resonance energy transfer. The data were analyzed with GraphPad Prism (La Jolla, Calif.). Enzyme Inhibition. To check the inhibition profile, 5 μL of serial diluted compounds were incubated with 5 μL of diluted PDE10 enzyme (BPS Bioscience, San Diego, Calif.) or tissue homogenate in a 384-well polystyrene assay plate (Corning, Corning, N.Y.) for 30 min at room temperature. After incubation, 10 μL of diluted fluorescein labeled cAMP or cGMP substrate were added and incubated for 60 min at room temperature. The reaction was stopped by adding 60 μL of diluted binding reagents and plates were read on an Envision (Perkin Elmer, Waltham, Mass.) for time resolved fluorescence resonance energy transfer. The data were analyzed with GraphPad Prism (La Jolla, Calif.).

[1] = Table 1A, Examples 11-56, read-out: PDE10 IC50

SMILES | IC50 [1] [nM] | further results
O=C(NC[C@H]1CCCO1)c1nccnc1N1CC(c2nc3cc(Cl)ccc3[nH]2)C1 [Example 37, 3-[3-(5-chloro-1H-benzoimidazol-2-yl)-azetidin-1-yl]-pyrazine-2-carboxylic acid (tetrahydro-furan-2-ylmethyl)-amide] | 2530 | –
O=C(c1cccnc1N1CC(c2nc3cc(Cl)ccc3[nH]2)C1)N1CC(O)C1 [Example 3, {2-[3-(5-CHLORO-1H-BENZOIMIDAZOL-2-YL)-AZETIDIN-1-YL]-PYRIDIN-3-YL}-(3-HYDROXY-AZETIDIN-1-YL)-METHANONE] | – | IC50 (read-out: IC50): 549 nM
Clc1ccc2[nH]c(C3CN(c4ncccc4C4CCOCC4)C3)nc2c1 [Example 56, 5-chloro-2-(1-(3-(tetrahydro-2H-pyran-4-yl)pyridin-2-yl)azetidin-3-yl)-1H-benzo[d]imidazole] | 987 | –
CN1CCN(c2nccnc2N2CC(c3nc4cc(Cl)ccc4[nH]3)C2)CC1 [Example 43, 5-chloro-2-(1-(3-(4-methylpiperazin-1-yl)pyrazin-2-yl)azetidin-3-yl)-1H-benzo[d]imidazole] | 305 | –
Cc1cccc(-c2nccnc2N2CC(c3ccc4ccccc4n3)C2)c1 [Example 58, 2-[1-(3-M-TOLYL-PYRAZIN-2-YL)-AZETIDIN-3-YL]-QUINOLINE] | – | IC50 (read-out: IC50): 7.61 nM
CNC(=O)c1nccnc1N1CC(c2nc3cc(Cl)ccc3[nH]2)C1 [Example 4, 3-[3-(5-CHLORO-1H-BENZOIMIDAZOL-2-YL)-AZETIDIN-1-YL]-PYRAZINE-2-CARBOXYLIC ACID METHYLAMIDE] | – | IC50 (read-out: IC50): 3880 nM
Cc1cccc(-c2nccnc2N2CC(c3nc4cc(Cl)ccc4[nH]3)C2)c1 [Example 25, 5-chloro-2-[1-(3-m-tolyl-pyrazin-2-yl)-azetidin-3-yl]-1H-benzoimidazole] | 15 | –
Cc1ccc2[nH]c(C3CN(c4nccnc4OC4CCOCC4)C3)nc2c1 [Example 1C, 5-METHYL-2-(1-(3-(TETRAHYDRO-2H-PYRAN-4-YLOXY)PYRAZIN-2-YL)AZETIDIN-3-YL)-1H-BENZO[D]IMIDAZOLE] | – | IC50 (read-out: IC50): 239 nM
Clc1ccc2[nH]c(C3CN(c4nccnc4C4=CCOCC4)C3)nc2c1 [Example 51, 5-chloro-2-(1-(3-(3,6-dihydro-2H-pyran-4-yl)pyrazin-2-yl)azetidin-3-yl)-1H-benzo[d]imidazole] | 442 | –
Clc1ccc2[nH]c(C3CN(c4nccnc4N4CCCCC4)C3)nc2c1 [Example 44, 5-chloro-2-(1-(3-(piperidin-1-yl)pyrazin-2-yl)azetidin-3-yl)-1H-benzo[d]imidazole] | 920 | –
Clc1ccc2[nH]c(C3CN(c4nc(N5CCOCC5)ncc4Cl)C3)nc2c1 [Example 7, 4-(5-CHLORO-4-(3-(5-CHLORO-1H-BENZO[D]IMIDAZOL-2-YL)AZETIDIN-1-YL)PYRIMIDIN-2-YL)MORPHOLINE] | – | IC50 (read-out: IC50): 155 nM
CC1CCN(c2nccnc2N2CC(c3ccc4ccccc4n3)C2)CC1 [Example 61, 2-{1-[3-(4-Methyl-piperidin-1-yl)-pyrazin-2-yl]-azetidin-3-yl}-quinoline] | – | IC50 (Table 2A, Examples 61-64, read-out: IC50): 3120 nM
Clc1ccc2[nH]c(C3CN(c4nccnc4-c4ccncc4)C3)nc2c1 [Example 34, 5-chloro-2-[1-(3-pyridin-4-yl-pyrazin-2-yl)-azetidin-3-yl]-1H-benzoimidazole] | 134 | –
CC(C)CNC(=O)c1cccnc1N1CC(c2nc3cc(Cl)ccc3[nH]2)C1 [Example 22, 2-[3-(5-chloro-1H-benzoimidazol-2-yl)-azetidin-1-yl]-N-isobutyl-nicotinamide] | 2230 | –
Clc1cccc(-c2nccnc2N2CC(c3nc4cc(Cl)ccc4[nH]3)C2)c1 [Example 31, 5-chloro-2-{1-[3-(3-chloro-phenyl)-pyrazin-2-yl]-azetidin-3-yl}-1H-benzoimidazole] | 119 | –
COc1cccc(-c2cccnc2N2CC(c3ccc4ccccc4n3)C2)c1 [Example 60, 2-{1-[3-(3-METHOXY-PHENYL)-PYRIDIN-2-YL]-AZETIDIN-3-YL}-QUINOLINE] | – | IC50 (read-out: IC50): 6820 nM
Clc1ccc2[nH]c(C3CN(c4ccnc(N5CCOCC5)n4)C3)nc2c1 [Example 1D, 4-(4-(3-(5-CHLORO-1H-BENZO[D]IMIDAZOL-2-YL)AZETIDIN-1-YL)PYRIMIDIN-2-YL)MORPHOLINE] | – | IC50 (read-out: IC50): 645 nM
Clc1ccc2[nH]c(C3CN(c4cc(OC5CCOCC5)ccn4)C3)nc2c1 [Example 5, 5-CHLORO-2-(1-(4-(TETRAHYDRO-2H-PYRAN-4-YLOXY)PYRIDIN-2-YL)AZETIDIN-3-YL)-1H-BENZO[D]IMIDAZOLE] | – | IC50 (read-out: IC50): 1090 nM
CN(C)C(=O)c1nccnc1N1CC(c2nc3cc(Cl)ccc3[nH]2)C1 [Example 35, 3-[3-(5-chloro-1H-benzoimidazol-2-yl)-azetidin-1-yl]-pyrazine-2-carboxylic acid dimethylamide] | 10000 | –
Clc1ccc2[nH]c(C3CN(c4nccnc4-c4cccnc4)C3)nc2c1 [Example 33, 5-chloro-2-[1-(3-pyridin-3-yl-pyrazin-2-yl)-azetidin-3-yl]-1H-benzoimidazole] | 538 | –
Cc1ccc2[nH]c(C3CN(c4nccnc4N4CCOCC4)C3)nc2c1 [Example 46, 4-(3-(3-(5-methyl-1H-benzo[d]imidazol-2-yl)azetidin-1-yl)pyrazin-2-yl)morpholine] | 600 | –
O=C(NCC1CCOCC1)c1cccnc1N1CC(c2nc3cc(Cl)ccc3[nH]2)C1 [Example 23, 2-[3-(5-chloro-1H-benzoimidazol-2-yl)-azetidin-1-yl]-N-(tetrahydro-pyran-4-ylmethyl)-nicotinamide] | 37600 | –
Clc1ccc2[nH]c(C3CN(c4nccnc4Nc4ccccc4)C3)nc2c1 [Example 40, 3-(3-(5-chloro-1H-benzo[d]imidazol-2-yl)azetidin-1-yl)-N-phenylpyrazin-2-amine] | 630 | –
Clc1ccc2[nH]c(C3CN(c4ncccc4Cl)C3)nc2c1 [Example 54, 5-chloro-2-(1-(3-chloropyridin-2-yl)azetidin-3-yl)-1H-benzo[d]imidazole] | 7.81 | –

The next lines start with results.

IC50 [1] [nM] | SMILES | further results
161 | N#Cc1ccc2[nH]c(C3CN(c4nccnc4-c4ccccc4)C3)nc2c1 [Example 14, 2-[1-(3-phenyl-pyrazin-2-yl)-azetidin-3-yl]-1H-benzoimidazole-5-carbonitrile] | –
1680 | O=C(NCCc1ccccc1)c1cccnc1N1CC(c2nc3cc(Cl)ccc3[nH]2)C1 [Example 20, 2-[3-(5-chloro-1H-benzoimidazol-2-yl)-azetidin-1-yl]-N-phenethyl-nicotinamide] | –
2600 | O=C(Nc1ccccc1)c1cccnc1N1CC(c2nc3cc(Cl)ccc3[nH]2)C1 [Example 18, 2-[3-(5-chloro-1H-benzoimidazol-2-yl)-azetidin-1-yl]-N-phenyl-nicotinamide] | –
461 | N#Cc1ccc2[nH]c(C3CCN(c4nccnc4-c4ccccc4)C3)nc2c1 (stereo not drawn) [Example 15, 2-[1-(3-phenyl-pyrazin-2-yl)-pyrrolidin-3-yl]-1H-benzoimidazole-5-carbonitrile] | –
4330 | COc1ccccc1-c1nccnc1N1CC(c2nc3cc(Cl)ccc3[nH]2)C1 [Example 27, 5-chloro-2-{1-[3-(2-methoxy-phenyl)-pyrazin-2-yl]-azetidin-3-yl}-1H-benzoimidazole] | –
80.9 | Clc1ccc2[nH]c(C3CN(c4nccnc4Oc4ccccc4)C3)nc2c1 [Example 42, 5-chloro-2-(1-(3-phenoxypyrazin-2-yl)azetidin-3-yl)-1H-benzo[d]imidazole] | –
74 | CN(c1ccccc1)c1nccnc1N1CC(c2nc3cc(Cl)ccc3[nH]2)C1 [Example 41, 3-(3-(5-chloro-1H-benzo[d]imidazol-2-yl)azetidin-1-yl)-N-methyl-N-phenylpyrazin-2-amine] | –
58.6 | Clc1ccc2[nH]c(C3CN(c4nccnc4-c4ccccc4Cl)C3)nc2c1 [Example 30, 5-chloro-2-{1-[3-(2-chloro-phenyl)-pyrazin-2-yl]-azetidin-3-yl}-1H-benzoimidazole] | –
110 | COc1ccc(-c2nccnc2N2CC(c3nc4cc(Cl)ccc4[nH]3)C2)cc1 [Example 29, 5-chloro-2-{1-[3-(4-methoxy-phenyl)-pyrazin-2-yl]-azetidin-3-yl}-1H-benzoimidazole] | –
